Measurements as given in patent EP1380292A1, “Tiaprid for the treatment of depressions” (Mewicon med. wiss. Beratung GmbH, priority 2002, dated 2004).

Key:
[1] = test system: D2/D3 Dopaminrezeptoren; conditions: from the literature (Scatton et al., Eur Psychiatry 2001); cited from earlier work
[2] = test system: Pyramidenzellen im Hippokampus-Schnittpräparat der Ratte; assay: Long-term potentiation in the hippocampus slice preparation in vitro; parameters: species or system CD-Ratten
Procedure: Testmethode 2 (Langzeitpotenzierung im Hippokampus-Schnittpräparat in vitro)
Die Wirkung von Tiaprid auf die Langzeitpotenzierung der Pyramidenzellen im Hippokampus-Schnittpräparat der Ratte wurde bestimmt.
Für die Durchführung dieser Studie wurden 15 erwachsene männliche CD-Ratten verwendet. Die Isolation des Hippokampus erfolgte an äthernarkotisierten und anschließend exsanguinierten Tieren. In Phosphat-gepufferter Salzlösung (NaCl: 124 mM; KCl: 5 mM; CaCl2: 2 mM; MgSO4: 2 mM; NaH2PO4: 1,25 mM; NaHCO3: 26 mM; Glucose: 10 mM; Kontroll-Lösung: künstliche Zerebral-Spinal-Flüssigkeit (ASCF, artificial cerebral spinal fluid); alle von der Firma Roth, Karlsruhe DE) wurde der mittlere Teil des Hippokampus mit Hilfe eines Schnellklebers aufgeblockt und mit einem Vibratom (Rhema Labortechnik) in 400 µm dicke Scheiben geschnitten. Die Aufbewahrung dieses Hippokampusschnittes erfolgte für mindestens 1 Stunde vor Versuchsbeginn (siehe S.J. Schiff, G.G. Somjen "The Effects of Temperature on Synaptic Transmission in Hippocampal Tissue Slices" Brain Research (1985), 345, 279-284) in einer mit Carbogen durchperlten Inkubationskammer.
Das Experiment selbst wurde in einer sog. "Base Unit mit Haas Top" (Firma Medical Systems Corp.) bei 35°C durchgeführt. Der mit Hilfe peristaltischer Pumpen (Infusomat, B. Braun Melsungen AG) superfundierte Hippokampusschnitt lag auf einem Stück Gaze. […]

[3] = test system: frontalem Kortex, Hippokampus, Striatum und Formatio Reticularis abgeleiteten Feldpotentiale; assay: Tele-Stereo-EEG: changes of EEG frequencies in freely moving rats after i.p. administration; assay type: in vivo, Fischer-344 Ratten; conditions: for Veränderungen der EEG-Frequenzen: i.p., 40 bis 100 mg/kg, rat, significant at least at P < 5 %-Level
Procedure: Testverfahren 1 ((Tele-Stereo-EEG)
Die Veränderungen der EEG-Frequenzen nach Gabe von Salzlösung (Kontrolle) bzw. einer Dosis von Tiaprid (40 bis 100 mg/kg Körpergewicht) wurden bestimmt.
Der Stecker diente der Aufnahme eines 4-Kanal-Senders zur telemetrischen Übertragung der aus frontalem Kortex, Hippokampus, Striatum und Formatio Reticularis abgeleiteten Feldpotentiale. Die Signale wurden auf einem Computer System (Software "EEG-Analyse", Betriebsystem OS Science, Laborrechner "LabTeam" der Firma MediSyst, Linden DE) in Echtzeit einer Fast-Fourier-Transformation unterworfen und die Leistungsdichtespektren jeweils über 15 bis 60 Minuten gemittelt. Die Unterteilung der Spektren in 6 verschiedene Frequenzbereiche erlaubte die Erfassung pharmakospezifischer Veränderungen in Bezug auf die jeweils vor der Applikation gemessenen Vorwerte innerhalb dieser Frequenzbänder.
Zum Applikationsprotokoll der Substanzen: Die Substanzen wurden i.p. 45 Minuten nach Beginn der Messungen (Vorwert) injiziert. Fünf Minuten später wurden die Messungen wieder gestartet, mindestens über die nächsten 5 Stunden kontinuierlich analysiert und in 15-minütigen Perioden zusammengefasst. Die Testsubstanz wurde in einer Dosierung von 40 bis 100 mg/kg appliziert. Die experimentelle Serie wurde mit der Injektion von Salzlösung (Kontrolle) begonnen.
Die beobachteten Frequenzänderungen wurden mittels einer Diskriminanzanalyse mit den Ergebnissen mit herkömmlichen antidepressiv wirkenden Arzneimitteln sowie Arzneimitteln für andere Indikationen verglichen. Es wurden folgende Arzneimittel verwendet: 100 mg/kg Tiaprid (Tiapr), 2 mg/kg Paroxetin (Parox), 10 mg/kg Imipramin (Imip), 10 mg/kg Amitryptilin (Amit), 1 mg/kg Nomifensin (Nomi), 0.5 mg/kg Midazolam (Midaz), 60 mg/kg Phenobarbital (Pheno), 60 mg/kg Meprobamat (Meprob), 0.5 mg/kg Chlorpromazin (Chlorp), 0,25 mg/kg Haloperidol (Halop), 1 mg/kg Prothipendyl (Prothi), 10 mg/kg Thioridazin (Thior), 15 mg/kg Carbamazepin (Carba), 75 mg/kg Valproinsäure (Valpr), 6 mg/kg Phenytoin (Pheny). Des weiteren wurden geprüft: 1,3 Vol.-% Halothan (Haloth), 100 mg/kg Propofol (Propo), 1,0 Vol.-% Isofluran (Isofl), 4,5 Vol.-% Desfluran (Desfl), 1,8 Vol.-% Sevofluran (Sevofl) und 1,7 Vol.-% Enfluran (Enfl). Die Ergebnisse sind in Fig. 2 dargestellt.

## CCN(CC)CCNC(=O)c1cc(S(C)(=O)=O)ccc1OC [Tiaprid, N-2-(Diethylaminoethyl)-5-methylsulfonyl-2-methoxybenzamide]
[1]
  Rezeptor-Bindungsprofil: selektive Blockade von D2/D3 Dopaminrezeptoren
[2]; Tiaprid added to superfusion fluid, 2 concentrations, rat hippocampus slice, 35°C, N = 6 slices
  Amplitude der Populationsspikes: konzentrationsabhängig zu einer deutlichen Abnahme der Amplitude der Populationsspikes
[2]; rat hippocampus slice in vitro, tetanic stimulus
  Langzeitpotenzierung: Unterdrückung der "Langzeitpotenzierung"
[3]; discriminant analysis against antidepressants and drugs for other indications, 100 mg/kg Tiaprid
  Muster der EEG-Frequenzänderungen ("Fingerprint", Diskriminanzanalyse): korrelieren in signifikanter Weise mit den Mustern, die für andere antidepressive Arzneimittel kennzeichnend sind
[3]; first hour after administration
  Veränderungen der EEG-Frequenzen: Abfall bei allen Frequenzen
[3]; i.p. single dose, compared with saline (0,9 % NaCl-Lösung), all brain areas, all frequencies
  Veränderungen der elektrischen Gehirnaktivität: statistisch signifikantes Niveau im Vergleich zu Salzlösung
[3]; next (second) hour after administration
  Veränderungen der EEG-Frequenzen: im Hippokampus und Striatum Theta- und Alpha2-Wellen nicht mehr so stark vermindert
